Results on 2 compounds are retold here after patent US20100075926A1, “ACTIVATION OF HISTONE DEACETYLASE 1 (HDAC1) PROTECTS AGAINST DNA DAMAGE AND INCREASES NEURONAL SURVIVAL” (priority 2008, published 2010).

The test system of one data set is WT mice. The experiment in a line: Contextual fear conditioning in WT mice. It is filed as in vivo, mouse. As to the method: Fear conditioning. Fear conditioning experiments were carried out as previously described (Kim et al., 2007), using a fear conditioning apparatus (TSE Systems, Midland, Mich.).
The subject of a further data set is primary cortical neurons. The experiment in a line: γH2AX and Ki-67 immunostaining of primary cortical neurons treated with HDAC1 inhibitor. It is filed as cell-based. The settings on record: 1 μM, 24 h, compared to vehicle (DMSO) controls. The protocol: (A, B) Primary cortical neurons were transfected with either HDAC1 siRNA or random sequence siRNA, along with GFP at a 7:1 ratio to label transfected neurons. Cells were fixed at 24 h, 48 h, and 72 h post-transfection and immunostained for γH2AX. GFP-positive neurons were scored for γH2AX immunoreactivity and for cell death based on nuclear condensation and neuritic integrity, as described in Methods. (A) Representative micrographs. HDAC1 siRNA or control (random sequence) siRNA transfected neurons are indicated by arrows. The HDAC1 siRNA transfected neurons display neuritic breakage. The inset is a magnification of the γH2AX staining of the neuron indicated by arrow and asterisk, showing γH2AX foci of varying sizes. Percentage of γH2AX and cell death are shown as averages from multiple sets ±S.D. It was noted that transfection of control siRNA per se appeared to cause a low but detectable level of γH2AX immunoreactivity and cell death. […] Controls were treated with equal amounts of vehicle (DMSO). Total numbers of γH2AX and Ki-67 positive neurons were quantified over 20 microscope fields (field diameter ˜900 μm). Scale bar=100 μm. […] Scale bar=[…].
Our findings raised the possibility that p25/cdk5 may cause both cell cycle reentry and DNA damage through inhibition of HDAC1 activity. We examined the effects of siRNA-mediated knockdown or pharmacological inhibition of HDAC1.

The next data set has as its system leukemia patients. The conditions noted are these: phase I clinical trial; cited from earlier work.
Data set [1] has as its system brain-derived neurotrophic factor (BDNF) expression in glioma cell line (C6). The experiment in a line: BDNF expression in glioma cell line (C6). It is filed as cell-based. The conditions noted are these: submicromolar concentrations, data not shown.

For `Nc1ccccc1NC(=O)c1ccc(CNC(=O)OCc2cccnc2)cc1` [MS-275], the “freezing behavior in contextual fear conditioning” value with WT mice (25 mg/kg IP daily for 10 days, vs saline) is “reduced freezing behavior”. The “associative learning capability (contextual fear conditioning)” value in the data set on WT mice (12.5 or 25 mg/kg IP daily for 10 days) is “impaired associative learning capability”. Moreover, in the data set with primary cortical neurons, the “aberrant expression of Ki-67 (Ki-67 positive neurons)” value is reported as 1.8 fold increase and the “double strand DNA breaks (γH2AX positive neurons)” value is 8.1 fold increase. The “dose-limiting toxicity (DLT)” value in the data set with leukemia patients is “neurologic toxicity manifesting as unsteady gait and somnolence”.
Take `O=C(CCCCCCC(=O)Nc1ccccc1)NO` [SAHA, suberoylanilide hydroxamic acid]: in data set [1], the “expression of brain-derived neurotrophic factor (BDNF)” value was “induced expression”.
